Like-named read-outs stand apart in the source and are kept apart here. Starred links: 1 amine or outer side, 2 acyl side, 3 side chain; linkers in the order of their positions; H or OH if unused. Positions of bridges follow the written chain, without caps; N, C: chain ends. Non-standard residues stand in square brackets, D forms with d. Residues, ends and D or L forms follow the SMILES beside them. *: point of attachment. Phe(3-NHCO(CH2)3SO2NH2) = N[C@@H](Cc1cccc(NC(=O)CCCS(N)(=O)=O)c1)C(=O)O; DOTA = O=C(O)CN1CCN(CC(=O)O)CCN(CC(=O)*)CCN(CC(=O)O)CC1; mXylylene = c1cc(C[*:1])cc(C[*:2])c1; X1 = O=C(CN1CCN([*:1])CC1)[*:2]
What was measured:
[1] = Biodistribution of In-111-labeled compounds by SPECT/CT in SK-RC-52 tumor-bearing mice, with or without gelofusine; type: in vivo, mouse; conditions: mouse, in vivo
Method: (§1) The effect on tumor uptake of prior injection of gelofusine for kidney protection was investigated in mice bearing the SK-RC-52 tumor. Biodistribution was evaluated using in vivo SPECT/CT imaging.
(§2) The study was performed in female NMRI nude mice (approximately 6 weeks of age) from Janvier Labs, France, housed up to 5 mice per cage.
(§3) The column was washed with 2 mL water, and then the final product was eluted from the column in EtOH solution (50%) • The sample was formulated in PBS to the final concentration of 150 MBq/mL and 5 nmol/mL.
(§4) HT-29 cells were cultured in McCoy's 5a Medium Modified (Sigma #M9309). For inoculation of HT-29 cells, cells were harvested, washed twice in PBS and resuspended at 5×10^7 cells/mL in PBS. Cells were kept on ice until inoculation.
(§5) Animals were anaesthetized (isoflurane, 2-4% in ambient air supplemented with 100% O2) prior to tumor inoculation. The tumor cells (100 μL suspension of either SK-RC-52 cells (2×10^6 cells/animal) or HT-29 cells (5×10^6 cells/animal)) were subcutaneously inoculated in the right flank using a 1-mL syringe equipped with a 27G needle. Tumor growth and animal weight were measured twice per week. Tumor size was measured by caliper and the volume was estimated using the following formula: 0.52×(length×width^2). When tumor sizes reached 150-250 mm^3, animals were randomized into groups (n=3) of similar average tumor volume and body weight.
(§6) CT was performed with helical scan, 300 ms exposure, reconstruction resolution of 250 μm. SPECT was performed with multi-pinhole scan and a 30 s frame time. For the quantification of the radioactivity uptake, regions of interests (ROIs) were drawn over the tumor, kidney, liver, and heart (estimate of blood) identified on the images. Uptake was expressed as percent of injected dose per gram tissue (% ID/g).

SK-RC-52 tumor = experiment: as above; type: in vivo, mouse
Method: as §1, §2, §3, §4, §5, §6

[2] = Toxicokinetics in the extended single-dose toxicity study in dogs; type: in vivo, dog; conditions: for concentration at 5 min: plasma, iv, read-out: C5 min; for concentration at 5 min / AUClast / CL / Vss: mean n = 3; for t1/2: harmonic mean
Method: The following parameters and endpoints were evaluated: mortality, clinical observations, body weights, food consumption, body temperature, local reactions, ophthalmology, clinical pathology parameters (hematology, coagulation, clinical chemistry, and urinalysis), cardiovascular and respiratory safety pharmacology endpoints along with FOB evaluation, organ weights, and macroscopic and microscopic examinations, and TK parameters. The animals from subset A (3 males and 3 females per group) were sampled for toxicokinetics (TK) at: pre-dose, 5 min, 15 min, 30 min, 1 h, 2 h, 3 h and 6 h. Blood samples were collected in K2EDTA tubes. Plasma was prepared by centrifugation (2500 g for 10 minutes, +4° C.) within 1 hour after collection, and then frozen within 1 hour after centrifugation and stored at −80° C. […] Chromatographic separation was achieved using a Waters Acquity UPLC system with a Waters Acquity HSS T3 C18 2.1×50 mm, 1.8 μm column. Chromatography was conducted at 50° C. at a flow rate of 0.7 mL/min using a mobile phase consisting of A: 1% formic acid in acetonitrile, and B: 1% formic acid in water, according to the following linear gradient: 0 to 0.1 min: 90% B; 0.1 to 4.1 min: from 90% B to 74% B; 4.1 to 4.2 min: from 74% B to 5% B; 4.2 to 4.6 min: 5% B; 4.6 to 4.7 min: from 5% B to 90% B; 4.7-5.1 min; 90% B. Detection was performed using a Sciex AP16600 TOF mass spectrometer. Toxicokinetic parameters were estimated from concentration-time data using Phoenix pharmacokinetic software (version 6.4, Certara L.P.). A non-compartmental approach consistent with the bolus intravenous injection was used for parameter estimation.

[3] = Cardiovascular and respiratory safety pharmacology (jacketed external telemetry) in dogs; type: in vivo; conditions: dog, any dose or timepoint
Source text: The test item treatment led to unaffected body weights, weight gains, and food intake. Likewise, no treatment-related abnormalities were reported during ophthalmic examinations, urinalysis, blood biochemistry, coagulation, and hematology investigations. There were no related organ weight changes and macroscopic and microscopic observations at early and late necropsies. Jacketed external telemetry was used to evaluate the potential cardiovascular and respiratory effects in the Subset B. Cardiorespiratory telemetry recordings were performed during the pre-test, Day 1 and 14. […] Arterial blood pressure parameters (systolic and diastolic blood pressure and mean arterial pressure) were measured continuously during consecutive 30-minute periods at pre-dose and for up to 6 h after dosing and over consecutive 60-minute periods up to 24 h after dosing. The respiratory rate was monitored on the pre-test, Day 1 and Day 14 at 0.5, 1, 2, 3, 4, 6, 8, 12, 16, 20, and 24 h. […] The potential effects on central nervous system parameters were evaluated under restrained and non-restrained conditions using a FOB in Subset A. Neurologic, autonomic, and behavioral investigations were performed in the pre-test, pre-dose, and 1 hour after dosing on Day 1.

[4] = female beagle dogs, single i.v. bolus 16 μg/kg
[5] = female beagle dogs, single i.v. bolus 80 μg/kg
[6] = female beagle dogs, single i.v. bolus 400 μg/kg
[7] = male beagle dogs, single i.v. bolus 16 μg/kg
[8] = male beagle dogs, single i.v. bolus 80 μg/kg
[9] = male beagle dogs, single i.v. bolus 400 μg/kg

## CC(C)C[C@@H]1NC(=O)[C@H](Cc2cccc(NC(=O)CCCS(N)(=O)=O)c2)NC(=O)[C@H](CC(=O)O)NC(=O)[C@H]2CCCN2C(=O)[C@H](CCC(=O)O)NC(=O)[C@@H](NC(=O)[C@H](CCC(N)=O)NC(=O)CN2CCN(C(=O)CN3CCN(CC(=O)O)CCN(CC(=O)O)CCN(CC(=O)O)CC3)CC2)CSCc2cccc(c2)CSC[C@@H](C(N)=O)NC(=O)[C@H](CO)NC(=O)[C@H](Cc2c[nH]c3ccccc23)NC(=O)[C@H]([C@@H](C)O)NC1=O [DPI-4452, DOTA-PPAc-Gln-[Cys(3MeBn)-Glu-pro-Asp-Af3(Cpsu)-Leu-Thr-Trp-Ser-Cys]-NH2] ({DOTA}-[X1]QCE[dP]D[Phe(3-NHCO(CH2)3SO2NH2)]LTWSC-NH2; linker 3-12 via mXylylene)
[1]; SK-RC-52, Mean ± SEM, N=3, read-out: Peak Tumor Uptake
  tissue uptake: 9.42 ± 1.53 %ID/g
[1]; SK-RC-52 mice, read-out: Peak Kidney uptake
  tissue uptake: 3.43 ± 0.24 %ID/g
SK-RC-52 tumor; SK-RC-52
  Time to peak uptake in tumor: 1 h
SK-RC-52 tumor; SK-RC-52, Mean ± SEM
  % remaining tumor uptake at 24 h p.i.: 73.3 ± 0.8%
SK-RC-52 tumor; SK-RC-52 mice
  Blood uptake at 4 h p.i.: 0.05 ± 0.01 % ID/g
  Kidney uptake at 24 h p.i.: 0.95 ± 0.05 % ID/g
  Liver uptake at 4 h p.i.: 0.18 ± 0.04 % ID/g
[2]; all dose levels
  Exposure difference between male and female dogs: No appreciable difference
[2]; dog, 400 μg/kg i.v.
  Mean AUCtlast at the NOAEL, females: 771 ng·h/mL
  Mean AUCtlast at the NOAEL, males: 854 ng·h/mL
[2]; dog, 0.08 mg/kg, female beagle dogs, single i.v. bolus 80 μg/kg
  concentration at 5 min: 346 ng/mL
[2]; dog, 0.08 mg/kg, male beagle dogs, single i.v. bolus 80 μg/kg
  concentration at 5 min: 332 ng/mL
[2]; dog, 0.4 mg/kg, female beagle dogs, single i.v. bolus 400 μg/kg
  concentration at 5 min: 1760 ng/mL
[2]; dog, 0.4 mg/kg, male beagle dogs, single i.v. bolus 400 μg/kg
  concentration at 5 min: 1840 ng/mL
[2]; dog, […], female beagle dogs, single i.v. bolus 16 μg/kg
  concentration at 5 min: 37.7 ng/mL
[2]; dog, […], male beagle dogs, single i.v. bolus 16 μg/kg
  concentration at 5 min: 43.5 ng/mL
[2]; [4]
  t1/2: 14.3 min
  AUClast: 12.4 ng·h/mL
  CL: 21.2 mL/min/kg
  Vss: 0.30 L/kg
[2]; [5]
  t1/2: 23.2 min
  AUClast: 144 ng·h/mL
  CL: 9.27 mL/min/kg
  Vss: 0.21 L/kg
[2]; [6]
  t1/2: 21.8 min
  CL: 8.63 mL/min/kg
  Vss: 0.19 L/kg
[2]; [7]
  t1/2: 15.5 min
  AUClast: 14.0 ng·h/mL
  CL: 18.3 mL/min/kg
  Vss: 0.26 L/kg
[2]; [8]
  t1/2: 21.7 min
  AUClast: 132 ng·h/mL
  CL: 10.1 mL/min/kg
  Vss: 0.21 L/kg
[2]; [9]
  t1/2: 23.7 min
  CL: 7.88 mL/min/kg
  Vss: 0.19 L/kg
[3]
  Cardiovascular or respiratory parameters (heart rate, arterial blood pressure, ECG, respiratory rate): no related effect on cardiovascular or respiratory parameters

— patent US20260284240A1, “RADIOLABELED COMPOUND FOR USE IN A METHOD OF TREATING CARBONIC ANHYDRASE IX POSITIVE DISEASES” (DEBIOPHARM INTERNATIONAL S.A., priority 2023, published 2026)
